Source: PubChem BioAssay (NCI)
In brackets after ≈: the same amount, converted by molar mass.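 Values below derive from 48-hour exposures of cells grown in 96-well plates, with endpoints linearly interpolated between the two concentrations bracketing the appropriate inhibition level. Abbreviation: GI50, concentration required for 50% inhibition of growth. At the TGI there is no net growth.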

How the values were obtained:
Assay in all cases: growth of human tumour cells (NCI), 48 h
[1] = test system: HCT-116 colon
[2] = test system: SW-620 colon
[3] = test system: NCI/ADR-RES ovarian
[4] = test system: K-562 leukemia
[5] = test system: OVCAR-8 ovarian
[6] = test system: MOLT-4 leukemia
[7] = test system: T-47D breast
[8] = test system: UACC-62 melanoma
[9] = test system: RPMI-8226 leukemia
[10] = test system: MCF7 breast
[11] = test system: OVCAR-3 ovarian
[12] = test system: 786-0 renal
[13] = test system: M14 melanoma
[14] = test system: U251 CNS
[15] = test system: CCRF-CEM leukemia
[16] = test system: HT29 colon
[17] = test system: HL-60(TB) leukemia
[18] = test system: DU-145 prostate
[19] = test system: MDA-MB-231 breast
[20] = test system: UO-31 renal
[21] = test system: SN12C renal
[22] = test system: MDA-N
[23] = test system: LOX IMVI melanoma
[24] = test system: SF-539 CNS
[25] = test system: MDA-MB-435
[26] = test system: SK-MEL-5 melanoma
[27] = test system: IGROV1 ovarian
[28] = test system: SNB-75 CNS
[29] = test system: MALME-3M melanoma
[30] = test system: HS 578T breast
[31] = test system: KM12 colon
[32] = test system: CAKI-1 renal
[33] = test system: SK-OV-3 ovarian
[34] = test system: SF-268 CNS
[35] = test system: ACHN renal
[36] = test system: COLO 205 colon
[37] = test system: NCI-H226 lung
[38] = test system: NCI-H460 lung
[39] = test system: A498 renal
[40] = test system: HOP-62 NSCLC
[41] = test system: NCI-H23 lung
[42] = test system: RXF 393 renal
[43] = test system: OVCAR-4 ovarian
[44] = test system: UACC-257 melanoma
[45] = test system: HOP-92 NSCLC
[46] = test system: SK-MEL-28 melanoma
[47] = test system: PC-3 prostate
[48] = test system: EKVX NSCLC
[49] = test system: A549 NSCLC
[50] = test system: SF-295 CNS
[51] = test system: TK-10 renal
[52] = test system: SNB-19 CNS
[53] = test system: SR leukemia
[54] = test system: OVCAR-5 ovarian
[55] = test system: HCT-15 colon
[56] = test system: SK-MEL-2 melanoma
[57] = test system: HCC-2998 colon
[58] = test system: NCI-H522 lung

For `CC(=O)OCCOCN1C(=O)NC(=O)/C(=C/c2cccc(OCc3ccccc3)c2)C1=O`, the GI50 [1] was 47.8 µg/mL (≈ 109 µM), the GI50 [2] was 68.1 µg/mL (≈ 155 µM) and the GI50 [3] was 19.9 µg/mL (≈ 45.4 µM). For the same compound, the TGI [3] was 45.4 µg/mL, the GI50 [4] was 34.9 µg/mL (≈ 79.7 µM) and the GI50 [5] was 37.9 µg/mL (≈ 86.6 µM). The GI50 [6] was 35.3 µg/mL (≈ 80.5 µM), the GI50 [7] was 73.9 µg/mL (≈ 169 µM) and the GI50 [8] was 48.5 µg/mL (≈ 111 µM). For the same compound, the GI50 [9] was 29.1 µg/mL (≈ 66.4 µM), the TGI [9] was 73.2 µg/mL and the GI50 [10] was 42.5 µg/mL (≈ 97 µM). The GI50 [11] was 50.3 µg/mL (≈ 115 µM), the GI50 [12] was 62.1 µg/mL (≈ 142 µM) and the GI50 [13] was 55.4 µg/mL (≈ 126 µM). It also gave a GI50 [14] of 55.7 µg/mL (≈ 127 µM), a GI50 [15] of 25 µg/mL (≈ 56.9 µM) and a TGI [15] of 58.1 µg/mL. It also gave a GI50 [16] of 48 µg/mL (≈ 110 µM), a GI50 [17] of 15 µg/mL (≈ 34.2 µM) and a TGI [17] of 48.6 µg/mL. The GI50 [18] was 66 µg/mL (≈ 151 µM), the GI50 [19] was 94.7 µg/mL (≈ 216 µM) and the GI50 [20] was 65.9 µg/mL (≈ 150 µM). For the same compound, the GI50 [21] was 66 µg/mL (≈ 151 µM), the GI50 [22] was 29.4 µg/mL (≈ 67.1 µM) and the GI50 [23] was 35.7 µg/mL (≈ 81.4 µM). The GI50 [24] was 23.4 µg/mL (≈ 53.3 µM), the TGI [24] was 79.1 µg/mL and the GI50 [25] was 63.6 µg/mL (≈ 145 µM). The GI50 [26] was 33.5 µg/mL (≈ 76.3 µM) and the GI50 [27] was 33.6 µg/mL (≈ 76.7 µM).

`CN(C)c1cccc2c1C(=O)C=CC21CCc2ccc(N(C)C)c3c(N(C)C)ccc1c23` (stereo not drawn) gave a TGI [28] of 19.2 µM, a TGI [1] of 22.9 µM and a TGI [29] of 24.4 µM. The TGI [30] was 66.8 µM, the TGI [2] was 35.6 µM and the TGI [3] was greater than 100 µM. The TGI [4] was 24.2 µM, the TGI [31] was 30.2 µM and the TGI [32] was 40 µM. For the same compound, the TGI [33] was 27 µM, the TGI [5] was 53.2 µM and the TGI [34] was 33.8 µM. For the same compound, the TGI [6] was 47 µM, the TGI [35] was 26.2 µM and the TGI [7] was greater than 100 µM. The TGI [36] was 29 µM, the TGI [8] was 26.9 µM and the TGI [37] was 33 µM. The TGI [9] was 58.6 µM, the TGI [38] was 28.7 µM and the TGI [39] was 15.3 µM. The TGI [10] was 27.3 µM, the TGI [40] was 32.8 µM and the TGI [41] was 37.4 µM. It also gave a TGI [42] of 20.8 µM, a TGI [43] of 83.4 µM and a TGI [44] of 25.1 µM. It also gave a TGI [45] of 41.8 µM, a TGI [11] of 24.8 µM and a TGI [46] of 30.4 µM. It also gave a TGI [12] of 26.1 µM, a TGI [13] of 29.1 µM and a TGI [47] of 27.4 µM. It also gave a TGI [15] of 87.7 µM, a TGI [48] of 63.1 µM and a TGI [16] of 27 µM. For the same compound, the TGI [49] was 42.3 µM, the TGI [17] was 27.3 µM and the TGI [50] was 43.1 µM. It also gave a TGI [51] of 28.1 µM, a TGI [18] of 17.5 µM and a TGI [19] of 31.2 µM. It also gave a TGI [20] of 24.1 µM, a TGI [21] of 26.5 µM and a TGI [22] of 28.6 µM. The TGI [52] was 33.4 µM, the TGI [23] was 31.9 µM and the TGI [24] was 35.4 µM. For the same compound, the TGI [53] was 56.5 µM, the TGI [54] was 49.6 µM and the TGI [25] was 28.6 µM. For the same compound, the TGI [26] was 30.1 µM and the TGI [27] was 31.2 µM.

In the case of `COC1CCC(=O)N1CN(C(C)=O)c1ccc(C)cc1` (stereo not drawn), the TGI [28] is reported as greater than 100 µM, the TGI [1] is reported as greater than 100 µM and the TGI [30] is reported as greater than 100 µM. For the same compound, the TGI [2] was greater than 100 µM, the TGI [3] was greater than 100 µM and the TGI [4] was greater than 100 µM. For the same compound, the TGI [31] was greater than 100 µM, the TGI [32] was greater than 100 µM and the TGI [33] was greater than 100 µM. It also gave a TGI [5] greater than 100 µM, a TGI [34] greater than 100 µM and a TGI [6] greater than 100 µM. It also gave a TGI [35] greater than 100 µM, a TGI [7] greater than 100 µM and a TGI [36] greater than 100 µM. It also gave a TGI [8] greater than 100 µM, a TGI [37] greater than 100 µM and a TGI [9] greater than 100 µM. It also gave a TGI [38] greater than 100 µM, a TGI [10] greater than 100 µM and a TGI [40] greater than 100 µM. For the same compound, the TGI [41] was greater than 100 µM, the TGI [42] was greater than 100 µM and the TGI [43] was greater than 100 µM. It also gave a TGI [44] greater than 100 µM, a TGI [11] greater than 100 µM and a TGI [46] greater than 100 µM. For the same compound, the TGI [12] was greater than 100 µM, the TGI [13] was greater than 100 µM and the TGI [14] was greater than 100 µM. For the same compound, the TGI [47] was greater than 100 µM, the TGI [16] was greater than 100 µM and the TGI [49] was greater than 100 µM. The TGI [50] was greater than 100 µM, the TGI [51] was greater than 100 µM and the TGI [18] was greater than 100 µM. For the same compound, the TGI [19] was greater than 100 µM, the TGI [20] was greater than 100 µM and the TGI [55] was greater than 100 µM. The TGI [21] was greater than 100 µM, the TGI [22] was greater than 100 µM and the TGI [56] was greater than 100 µM. For the same compound, the TGI [52] was greater than 100 µM, the TGI [23] was greater than 100 µM and the TGI [24] was greater than 100 µM. For the same compound, the TGI [57] was greater than 100 µM, the TGI [53] was greater than 100 µM and the TGI [54] was greater than 100 µM. It also gave a TGI [25] greater than 100 µM and a TGI [26] greater than 100 µM.

`COc1ccc(N2C(=O)C3c4[nH]c5ccc(F)cc5c4C4CCC(C(C)(C)C)CC4C3C2=O)cc1` (stereo not drawn) gave a TGI [28] of 4.87 µM, a TGI [1] greater than 10 µM and a TGI [29] greater than 10 µM. It also gave a TGI [30] greater than 10 µM, a TGI [2] greater than 10 µM and a TGI [3] greater than 10 µM. For the same compound, the TGI [31] was greater than 10 µM, the TGI [32] was greater than 10 µM and the TGI [33] was greater than 10 µM. For the same compound, the TGI [5] was greater than 10 µM, the TGI [34] was greater than 10 µM and the TGI [6] was greater than 10 µM. It also gave a TGI [35] greater than 10 µM, a TGI [7] greater than 10 µM and a TGI [36] greater than 10 µM. It also gave a TGI [8] greater than 10 µM, a TGI [37] greater than 10 µM and a TGI [9] greater than 10 µM. For the same compound, the TGI [38] was greater than 10 µM, the TGI [39] was greater than 10 µM and the TGI [10] was greater than 10 µM. The TGI [40] was greater than 10 µM, the TGI [41] was greater than 10 µM and the TGI [42] was greater than 10 µM. The TGI [43] was greater than 10 µM, the TGI [11] was greater than 10 µM and the TGI [46] was greater than 10 µM. The TGI [13] was greater than 10 µM, the TGI [14] was greater than 10 µM and the TGI [47] was greater than 10 µM. The TGI [15] was greater than 10 µM, the TGI [48] was greater than 10 µM and the TGI [16] was greater than 10 µM. The TGI [49] was greater than 10 µM, the TGI [17] was greater than 10 µM and the TGI [50] was greater than 10 µM. For the same compound, the TGI [51] was greater than 10 µM, the TGI [18] was greater than 10 µM and the TGI [19] was greater than 10 µM. For the same compound, the TGI [20] was greater than 10 µM, the TGI [58] was greater than 10 µM and the TGI [55] was greater than 10 µM. The TGI [21] was greater than 10 µM, the TGI [22] was greater than 10 µM and the TGI [56] was greater than 10 µM. The TGI [52] was greater than 10 µM, the TGI [24] was greater than 10 µM and the TGI [57] was greater than 10 µM. It also gave a TGI [53] greater than 10 µM, a TGI [54] greater than 10 µM and a TGI [25] greater than 10 µM. It also gave a TGI [26] greater than 10 µM and a TGI [27] greater than 10 µM.
